Values of other authors as cited in patent US20050053970A1, “Methods and compositions for identifying peptide aptamers capable of altering a cell phenotype” (priority 2001, published 2005).

Legend:
[1] = target: α/δ and α/γ sites in T. californica electric organ (Tetronarce californica, UniProt P02710+P02714+P02718)
mammals = details: in vivo
[2] = target: T1, mutant human growth hormone (Thr175 Gly-hGH) and extracellular domain of the hGH receptor (Trp104 Gly-hGHbp) (Homo sapiens, UniProt P01241+P10912, T201G/W122G); details: Thr175 Gly-hGH with Trp104 Gly-hGHbp
T1 construct: the extracellular domain of the hGH receptor (Trp104 Gly-hGHbp)

| Compound | activity in T. californica [1] | discrimination between the α/δ and α/γ sites [1] | effect in mammals (mammals) | increase of the affinity of the mutant hormone for its receptor [2] |
| --- | --- | --- | --- | --- |
| ICCNPACGPLYSC-NH2 [α-conotoxin SI] | active | does not distinguish | essentially no effect |  |
| Clc1cnc(C(Cl)(Cl)Cl)[nH]1 [5-chloro-2-trichloromethylimidazole] |  |  |  | more than 1000 fold |
| ECCNPACGRHYSC-NH2 [α-conotoxin GI] |  | finds the α/δ site preferable to the α/γ site | lethal to mammals at low concentrations |  |
